According to article PMC4523242 (Antiviral Research, 2014):
Like-named read-outs stand apart in the source and are kept apart here.

Key:
[1] = test system: BHK-21 cells; experiment: Cytotoxicity; settings: read-out: DENV2 replicon CC50, 24 h
[2] = test system: Vero cells; experiment: Cytotoxicity; settings: read-out: WNV replicon CC50; Vero cells, 24 h
[3] = test system: WNV replicon; experiment: WNV Rluc reporter replicon inhibition assay in Vero/WNV cells; type: cell-based, West Nile virus; settings: 24 h; for % replicon inhibition (Means ± SEM) WNV: 50 μM; for EC50: read-out: WNV replicon EC50
[4] = test system: DENV2 replicon; experiment: DENV2 Rluc reporter replicon inhibition assay in BHK-21/DENV2 cells; type: cell-based, Dengue virus type 2; settings: for % replicon inhibition (Means ± SEM) DENV2: 50 μM, 24 h, BHK-21/DENV2 replicon cells; for EC50: Dengue virus
[5] = Cytotoxicity; settings: African green monkey, naïve Vero cells
[6] = test system: DENV2; experiment: Direct plaque assay; type: cell-based, Dengue virus type 2; settings: MOI of 0.01
[7] = test system: DENV2; experiment: DENV2 infectivity in BHK-21 cells, plaque assay of supernatants; type: cell-based, Dengue virus type 2
[8] = test system: DENV2; experiment: qRT-PCR of intracellular and extracellular DENV2 RNA in infected BHK-21 cells; type: cell-based, Dengue virus type 2; settings: 5 μM, MOI of 1, 72 h
[9] = target: Renilla luciferase (Rluc) (Renilla reniformis, UniProt P27652); type: biochemical
Sequence of Renilla luciferase (Rluc) (P27652 whole entry, looked up): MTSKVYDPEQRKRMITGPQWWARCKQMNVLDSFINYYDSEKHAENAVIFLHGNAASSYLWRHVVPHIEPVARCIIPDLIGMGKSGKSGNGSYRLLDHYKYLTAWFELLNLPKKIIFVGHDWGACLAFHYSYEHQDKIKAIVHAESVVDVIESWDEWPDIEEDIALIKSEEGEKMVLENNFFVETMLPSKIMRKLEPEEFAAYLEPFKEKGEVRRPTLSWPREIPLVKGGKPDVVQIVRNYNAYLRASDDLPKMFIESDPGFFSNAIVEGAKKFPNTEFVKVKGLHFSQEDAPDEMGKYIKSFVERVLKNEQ

[10] = target: DENV2 NS5 RdRP (Dengue virus type 2, UniProt P14340); experiment: RNA-dependent RNA polymerase assay; type: biochemical
[11] = Viability of replicon expressing cells; settings: hamster, BHK-21 cells expressing DENV2 replicon
[12] = target: DENV2 5'-RNA methyltransferase (NS5FL) (Dengue virus type 2, UniProt P14340); type: biochemical
[13] = target: T1, DENV2 NS2B-NS3 protease (Dengue virus type 2, UniProt P14340); type: biochemical
T1 sequence (P14340 1476-1653 limits assumed): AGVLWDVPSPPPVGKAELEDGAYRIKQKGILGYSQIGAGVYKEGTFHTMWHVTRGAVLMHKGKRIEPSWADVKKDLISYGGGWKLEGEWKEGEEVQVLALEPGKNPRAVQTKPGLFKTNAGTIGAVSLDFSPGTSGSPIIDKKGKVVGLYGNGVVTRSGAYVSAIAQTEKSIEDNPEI
T1 sequence (P14340 1398-1437 limits assumed): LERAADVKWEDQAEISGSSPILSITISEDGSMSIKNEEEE

[14] = Vero/WNV replicon cells, Rluc, initial screening
[15] = DENV2, BHK-21, 24 h, read-out: DENV2 replicon EC50

Molecule	CC50 [1] [µM]	CC50 [2] [µM]	% replicon inhibition (Means ± SEM) WNV ([3]; Vero/WNV replicon cells) [%]	EC50 [3, 14] [µM]	% replicon inhibition (Means ± SEM) DENV2 [4] [%]	CC50 at 24 h [5] [µM]	EC50 ([3]; West Nile virus, Vero) [µM]	EC50 [4, 15] [µM]	other results
Quinacrine mustard [Compound 9]	2.4 ± 0.63	0.97 ± 0.11	> 99	0.36 ± 0.09	> 99	–	–	–	–
CC(CCCN(CCCl)CCCl)Nc1ccnc2cc(Cl)ccc12 (stereo not drawn) [Compound 5, Chloroquine mustard]	–	–	> 99	–	> 99	3.64 ± 0.93	2.95 ± 0.77	2.9 ± 0.78	–
Cl.ClCCN(CCCl)c1ccc(CCNc2ccnc3cc(Cl)ccc23)cc1 [Compound 4, Chloroquine ethyl phenyl mustard]	74.1 ± 21.5	5.02 ± 1.23	> 99	1.55 ± 0.4	> 99	–	–	–	–
CCN(CC)Cc1cc(Nc2ccnc3cc(Cl)ccc23)ccc1O [Compound 1, 4-[(7-chloroquinolin-4-yl)amino]-2(diethylaminomethyl)phenol]	–	–	–	–	–	24.4 ± 2.49	14.6 ± 2.21	10.8 ± 1.43	effect on DENV2 adsorption ([6]; 5 μM during adsorption only): does not inhibit DENV2 adsorption; virus titer reduction, direct plaque assay ([6]; 10 μM during adsorption only): 69.23 ± 1.57%; virus titer reduction, direct plaque assay ([6]; 25 μM during adsorption only): 82.70 ± 2.48%; inhibition at 50 µM ([3]; West Nile virus, Vero, read-out: % replicon inhibition (Means ± SEM) WNV, 50 μM, 24 h, Vero/WNV replicon cells): 96.3 ± 0.39%; plaque reduction, time of addition assay ([7]; 5 μM added as late as 15 h post-infection, MOI of 1, supernatants at 72 h): ≥ 90%; effect when added late, time of addition assay ([7]; 5 μM added at 21 h post-infection and later, MOI of 1): lost its inhibitory effect; reduction of plaque titer from DMSO control, order of addition assay ([7]; 5 μM added post-infection, MOI of 1, 48 and 72 h post-infection): ≥ 90%; plaque formation reduced (time course) ([7]; 5 μM, MOI of 0.01, up to 96 h): ≥ 90%; stability of AQ in infected cell culture ([7]; concluded from time course of inhibition, 37 °C, post-infection): at least 96 h; % replicon inhibition (Means ± SEM) DENV2 ([4]; listed as AQ): 76.31 ± 1.60%; EC50 ([4]; DENV2, BHK-21, 48 h, read-out: EC50 DENV2 replicon replication): 7.41 ± 1.09 µM; intracellular and extracellular DENV2 RNA levels (qRT-PCR) [8]: effectively inhibited DENV2 replication; interference with Rluc enzyme activity [9]: did not interfere; Inhibition of RdRP activity, positive-strand RNA synthesis ([10]; 50 μM, 60 min): 10.58 ± 0.94%; inhibition at 50 µM ([10]; read-out: Inhibition of RdRP activity, negative-strand synthesis): -17.1 ± 4.37%; CC50 at 48 h [11]: 52.1 ± 4.25 µM; inhibition of formation of type I cap by NS5FL [12]: did not inhibit; effect on DENV2 protease [13]: no effect
